pIC50: −log10 of the molar value. Read-outs that look alike come from different tables or passages of the source. Where a SMILES comes first, the peptide text is derived from it.
Columns and labels:
[1] = test system: NCI/ADR-RES (multi-drug resistant ovarian adenocarcinoma) cells; assay: cells; type: cell-based; settings: 72 h
[2] = mouse; cited from earlier work
[3] = human; cited from earlier work
[4] = test system: A549 (lung carcinoma) cells; assay: MTT cytotoxicity, A549; type: cell-based; settings: Homo sapiens, A549, 72 h
[5] = mouse, in vivo, 1 mg/kg

Question: With `CC(C)[C@H](NC(=O)[C@H](CCCCN)NC(=O)[C@@H](NC(=O)[C@H](CCCCN)NC(=O)[C@@H](NC(=O)[C@H](CCCCN)NC(=O)[C@@H](NC(=O)[C@@H]1CCCN1C(=O)[C@H]1CCCN1C(=O)[C@@H](NC(=O)[C@H](CCCCN)NC(=O)[C@@H](NC(=O)[C@H](CCCCN)NC(=O)[C@@H](NC(=O)[C@H](CCCCN)NC(=O)[C@@H](NC(=O)[C@@H](N)CCCCN)C(C)C)C(C)C)C(C)C)C(C)C)[C@@H](C)O)C(C)C)C(C)C)C(=O)N[C@@H](CCCCN)C(N)=O` [SVS-1] (HELM PEPTIDE1{K.V.K.V.K.V.K.V.[dP].P.T.K.V.K.V.K.V.K.[am]}$$$$V2.0) as the compound, how does the pIC50 [1] read?
Answer: 5.49

Question: With KKVVFKVKFKK-NH2 [KSLK] as the compound, how does the reported half-life [2] read?
Answer: 6 min

Question: For YGRKKRRQRRR-NH2 [TAT], which reported half-life [3] is on record?
Answer: 3.5 min

Question: With `CC(=O)O[C@H]1C(=O)[C@@]2(C)[C@H]([C@H](OC(=O)c3ccccc3)[C@]3(O)C[C@H](OC(=O)[C@H](O)[C@@H](NC(=O)c4ccccc4)c4ccccc4)C(C)=C1C3(C)C)[C@]1(OC(C)=O)CO[C@@H]1C[C@@H]2O` [PTX, Paclitaxel] as the compound, how does the pIC50 [4] read?
Answer: 8.44

Question: What about the pIC50 ([1]; Homo sapiens, NCI/ADR-RES) of the same compound?
Answer: 5.01

Question: What about the “decrease in activity compared to the peptide conjugate” value ([1]; NCI/ADR-RES, MTT) of the same compound?
Answer: ~2 fold

Question: What about the “tolerability at maximum soluble concentration” value [5] of the same compound?
Answer: well tolerated

From paper PMC4458427 (Journal of controlled release : official journal of the …, 2015)
